# Results taken from article PMC2730741 (Bioorganic & medicinal chemistry, 2009).
# “Also recorded” adds a separate entry of the source.
# Tests used:
# [1] = test system: LF cleavage of MEK1 in HeLa cells; assay type: cell-based, Human
# [2] = microsomes
# in vitro = conditions: microsomes
# lethal factor (LF) = lethal factor (LF) (Bacillus anthracis, UniProt P15917); assay: biochemical; assay type: biochemical
# [3] = test system: Bacillus anthracis Sterne spores; set-up: species or system A/J mice; conditions: mouse, in vivo
# [4] = test system: RAW 264.7 macrophages, LF/PA induced cell death; assay: cells; assay type: cell-based, Murine; conditions: Mus musculus, RAW264.7, 4 h, read-out: EC50 (macrophage assay)
# Sequence of lethal factor (LF) (P15917 34-809 limits assumed): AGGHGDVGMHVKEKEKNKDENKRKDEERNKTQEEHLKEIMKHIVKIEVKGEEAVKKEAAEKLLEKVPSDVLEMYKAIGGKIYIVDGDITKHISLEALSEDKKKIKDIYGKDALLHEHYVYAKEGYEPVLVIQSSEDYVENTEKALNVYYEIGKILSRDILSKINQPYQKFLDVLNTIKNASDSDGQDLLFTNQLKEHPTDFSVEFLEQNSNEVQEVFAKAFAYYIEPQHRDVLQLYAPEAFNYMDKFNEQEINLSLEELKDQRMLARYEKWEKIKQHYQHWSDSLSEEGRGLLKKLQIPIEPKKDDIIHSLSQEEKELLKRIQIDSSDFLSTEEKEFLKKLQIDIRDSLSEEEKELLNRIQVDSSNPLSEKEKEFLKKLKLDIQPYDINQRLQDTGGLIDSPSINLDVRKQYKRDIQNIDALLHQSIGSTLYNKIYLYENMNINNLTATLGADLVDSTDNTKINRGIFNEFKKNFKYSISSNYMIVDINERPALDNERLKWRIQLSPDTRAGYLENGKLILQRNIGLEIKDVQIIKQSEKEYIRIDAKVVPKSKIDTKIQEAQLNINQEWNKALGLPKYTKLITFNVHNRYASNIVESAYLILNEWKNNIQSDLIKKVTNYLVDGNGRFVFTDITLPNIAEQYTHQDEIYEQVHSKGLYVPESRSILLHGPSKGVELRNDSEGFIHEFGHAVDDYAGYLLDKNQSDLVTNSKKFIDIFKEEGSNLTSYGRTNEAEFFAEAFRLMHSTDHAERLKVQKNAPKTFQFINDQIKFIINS
Structure (SMILES),Pampa,half-life (in vitro) [h],IC50 (lethal factor (LF)) [µM],other results
Cc1cc(S(=O)(=O)N[C@H](C(=O)NO)C2CCOCC2)ccc1F [Compound 7],–,–,–,protection of HeLa cells against LF cleavage of MEK1 [1]: effective
"Cc1csc(NS(=O)(=O)c2ccc([N+](=O)[O-])cc2)c1-c1nc2ccccc2s1 [Compound 17, N-(3-(benzo[d]thiazol-2-yl)-4-methylthiophen-2-yl)-4-nitrobenzenesulfonamide]",High,> 2,–,Metabolic stability Hept. CLint [2]: t1/2= >120min CLint= 0.6
"Nc1sccc1-c1nc2ccccc2s1 [Compound 42, reference compound]",–,–,–,inhibitory activity against LF (in words) (lethal factor (LF)): essentially inactive
"Cc1ccc(S(=O)(=O)Nc2sccc2-c2nc3ccccc3s2)cc1Cl [Compound 55, N-(3-(benzo[d]thiazol-2-yl)thiophen-2-yl)-3-chloro-4-methylbenzenesulfonamide]",High,> 2,–,survival of infected mice versus DMSO control [3]: slight improvement in comparison to the control
"O=S(=O)(Nc1sccc1-c1nc2ccccc2s1)c1cc(OCC(F)(F)F)ccc1OCC(F)(F)F [Compound 56, N-(3-(benzo[d]thiazol-2-yl)thiopen-2-yl)-2,5-bis(2,2,2-trifluoroethoxy)benzenesulfonamide]",–,–,39,–
COc1ccc(-c2ccc(S(=O)(=O)Nc3sccc3-c3nc4ccccc4s3)cc2)cc1 [Compound 70],Low,> 2,–,EC50 [4]: 0.561 µM; protection of HeLa cells against LF cleavage of MEK1 [1]: effective; survival of infected mice versus DMSO control [3]: a little more effective in protecting the mice; also recorded: best survival; Metabolic stability Hept. CLint [2]: t1/2= >120min CLint= 3.6
O=S(=O)(Nc1sccc1-c1nc2ccccc2s1)c1ccc(-c2ccc(Cl)cc2)cc1 [Compound 71],Low,> 2,–,–
"O=S(=O)(Nc1sccc1-c1nc2ccccc2s1)c1ccc2ncsc2c1 [Compound 92, N-(3-(benzo[d]thiazol-2-yl)thiophen-2-yl)benzo[d]thiazole-6-sulfonamide]",High,> 2,–,Metabolic stability Hept. CLint [2]: t1/2= >120min CLint= 3.9
"CSc1nccc(-c2ccc(S(=O)(=O)Nc3sccc3-c3nc4ccccc4s3)s2)n1 [Compound 99, N-(3-(benzo[d]thiazol-2-yl)thiophen-2-yl)-5-(2-(methylthio)pyrimidin-4-yl)thiophene-2-sulfonamide]",–,–,18,–
COc1ccc(-c2ccc(S(=O)(=O)Nc3sc4c(c3-c3nc5ccccc5s3)CCCC4)cc2)cc1 [Compound 105],–,–,> 50,–
O=S(=O)(Nc1sc2c(c1-c1nc3ccccc3s1)CCCC2)c1ccc(-c2ccc(Cl)cc2)cc1 [Compound 106],–,–,> 50,–
"CNC(=O)[C@H](Cc1c[nH]c2ccccc12)NC(=O)[C@@H](CC(=O)NO)CC(C)C [Inhibitor 1, Ilomastat]",–,–,–,protection of HeLa cells against LF cleavage of MEK1 [1]: effective
